Values quoted from earlier work, collected in patent publication US11701338B2, “Use of gTso thal in manufacturing medicament for promotion of MS-275 to cross blood-brain barrier” (Northwest Institute of Plateau Biology, Chinese Academy of …, priority 2020, dated 2023).

Conditions: after oral or intravenous administration

## Nc1ccccc1NC(=O)c1ccc(CNC(=O)OCc2cccnc2)cc1 [MS-275]
  share of the dosage of MS-275 that crosses the BBB into the brain: around 15%
